Source: patent US20100196926A1, “Combined Method And Kit For The Sequential Measurement of (1) The Enzymatically Active Fraction And (2) The Total Amount Of An Enzyme” (UNIVERSITE DE LIEGE, priority 2007, published 2010)

System: activated equine neutrophils
Assay: Combined SIEFED-ELISA measurement of total and active MPO released by PMA-activated equine neutrophils pre-incubated with polyphenols
Format: cell-based, horse
Details: for inhibition percentage on total enzyme (MPO) release / inhibition percentage on MPO activity (active fraction of MPO released): 10^-5 M, neutrophils pre-incubated 10 min at 37° C., activated 30 min with 8×10^−7 M PMA, supernatant
Experimental: The primary antibody(2), that captures the enzyme (MPO 1), is a rabbit IgG (3 μg/ml). Standard enzyme (MPO) or unknown sample is incubated 2 h at 37° C. After washing, the (peroxidase) activity of the enzyme (MPO) is detected by adding 100 μl of a 10 μM H2O2 solution and 40 μM of Amplex® Red (8) (10-acetyl-3,7-dihydroxyphenoxazine; from Molecular Probes) in phosphate buffer (50 mM, pH 7.5). The fluorescence is read during 30 min (at 37° C.) at 590 nm with a Fluoroskan Ascent apparatus (Labsystems). The volumes of the primary antibody(2) and the sample put in the wells, are 200 μl. Controls (blank) and dilutions of the samples are established with dilution buffer.
Enhancement of fluorescence was obtained when adding a defined concentration of nitrites ions (about 10 mM) to the Amplex® Red solution (8). The fluorescence response obtained in this SIEFED steps (part) of the combined SIEFED-ELISA bioassay is directly proportional to the enzymatically active fraction of the enzyme (equine MPO) present in the sample.
After the SIEFED detection, a washing (0.9% NaCl solution containing 0.1% tween 20) is performed before starting the ELISA part of the combined method; the immobilized antibody(2)—antigen(1) complex is incubated (2 h, 37° C.) with an excess (5 μg/ml) of guinea pig IgG, the secondary antibody (4). After washing, a third antibody (5) produced against guinea pig IgG is added. This third IgG (5) (goat IgG) is labeled with alkaline phosphatase (6) and recognizes the “sandwich” complex “primary antibody (2)—MPO(1)—secondary antibody”(4). After washing, phosphatase activity is detected by incubation (30 min, 37° C., in the darkness) with a paranitrophenyl phosphate solution (phosphatase substrate, Sigma). The reaction is stopped with NaOH and the absorbance (405 nm) is measured with a Multiscan Ascent apparatus (Labsystem). All the volumes added into the wells comprise 100 μl, except for washing (300 μl) and for the substrate solution (200 μl). Controls (blank) and dilutions of the standard enzyme (MPO) and samples were established with dilution buffer [PBS (20 mM phosphate, 137 mM NaCl and 2.7 mM KCl pH 7.4) to which 5 g/L bovine serum albumin and 0.1% tween 20 were added].
Neutrophils isolated from citrated blood of healthy horses were counted, suspended in phosphate buffer saline (PBS) at pH 7.4 and incubated 10 min at 37° C. with curcumin or THC at the final concentration of 10^−4, 10^−5 or 10^−6 M. After incubation and centrifugation (1000×g, 10 min), the neutrophils were resuspended in PBS and activated 30 min with 8×10^−7 M phorbol myristate acetate (PMA) followed by centrifugation and active and total enzyme (MPO) measurement in the supernatant by the combined SIEFED-ELISA specific bioassay. The effects of polyphenols on total and active fraction of enzyme (MPO) released by stimulated neutrophils were studied by pre-incubation of neutrophils with the drugs at various concentrations, before the neutrophil stimulation.

Compound | inhibition percentage on total enzyme (MPO) release (ELISA part) | inhibition percentage on MPO activity (active fraction of MPO released) (SIEFED part) | effect on the total enzyme (MPO) released by activated neutrophils (10^−4, 10^−5 or 10^−6 M, PMA-activated equine neutrophils, ELISA part) | effect on the active fraction of the enzyme (MPO) released by activated neutrophils (10^−4, 10^−5 or 10^−6 M, PMA-activated equine neutrophils, SIEFED part)
COc1cc(/C=C/C(=O)CC(=O)/C=C/c2ccc(O)c(OC)c2)ccc1O [curcumin, Curcumin] | 44% | 60% | dose dependent inhibitory effects | dose dependent inhibitory effects
COc1cc(CCC(=O)CC(=O)CCc2ccc(O)c(OC)c2)ccc1O [THC, Tetrahydrocurcumin] | 18% | 22% |  | 
